Assay results from patent US11046680B1, “Heteroaryl-substituted triazoles as APJ receptor agonists” (priority 2016, dated 2021).

Target: human APJ receptor (Homo sapiens (Human), UniProt P35414)
Assay: biochemical
Format: biochemical
Details: [35S]GTPγS binding, CHO membranes expressing human APJ receptor; read-out: Activity hAPJ SPA EC50 IP
Outline: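 Membranes of a stable CHO line carrying human APJ (pFLAG-CMV-3) were used in a GTPγS binding format; buffer GDP, MgCl2 and NaCl were optimized, and plates were read after 90 min at RT.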

human APJ receptor, sequence (P35414 whole entry): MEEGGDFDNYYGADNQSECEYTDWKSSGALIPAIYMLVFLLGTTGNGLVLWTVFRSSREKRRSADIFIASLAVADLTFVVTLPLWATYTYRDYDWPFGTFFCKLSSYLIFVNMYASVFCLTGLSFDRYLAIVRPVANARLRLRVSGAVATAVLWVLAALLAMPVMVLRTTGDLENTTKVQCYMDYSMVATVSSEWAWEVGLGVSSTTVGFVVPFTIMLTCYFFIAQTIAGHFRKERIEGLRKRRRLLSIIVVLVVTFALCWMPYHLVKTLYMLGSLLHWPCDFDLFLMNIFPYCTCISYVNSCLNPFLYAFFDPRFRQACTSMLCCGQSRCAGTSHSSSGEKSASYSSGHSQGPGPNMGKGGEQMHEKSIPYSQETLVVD

COc1cccc(OC)c1-n1c(NS(=O)(=O)C[C@@H](O)c2ccc(F)cc2F)nnc1-c1ccn(C)n1 (racemic) [Example 116.0, (S)-2-(2,4-difluorophenyl)-N-(4-(2,6-dimethoxyphenyl)-5-(1-methyl-1H-pyrazol-3-yl)-4H-1,2,4-triazol-3-yl)-2-hydroxyethanesulfonamide and (R)-2-(2,4-difluorophenyl)-N-(4-(2,6-dimethoxyphenyl)-5-(1-methyl-1H-pyrazol-3-yl)-4H-1,2,4-triazol-3-yl)-2-hydroxyethanesulfonamide]
EC50: 0.0026 µM

O=S(=O)(CCc1ccc(Cl)cc1)Nc1nnc(-c2cccs2)n1-c1ccccc1OC(F)F [Example 240.0, 2-(4-chlorophenyl)-N-(4-(2-(difluoromethoxy)phenyl)-5-(thiophen-2-yl)-4H-1,2,4-triazol-3-yl)ethanesulfonamide]
EC50: 1.31 µM

COc1cnc([C@@H](C)[C@H](C)S(=O)(=O)Nc2nnc(-c3ccn(C)n3)n2-c2c(OC)ncnc2OC)cn1 [Example 292.0, (2S,3R)-N-(4-(4,6-dimethoxy-5-pyrimidinyl)-5-(1-methyl-1H-pyrazol-3-yl)-4H-1,2,4-triazol-3-yl)-3-(5-methoxy-2-pyrazinyl)-2-butanesulfonamide]
EC50: 0.0012 µM

COc1ncnc(OC)c1-n1c(NS(=O)(=O)[C@@H](C)[C@H](OC)c2ncc(C)cn2)nnc1-c1nc(C2CC2)cs1 [Example 4.0, (1R,2S)-N-(5-(4-cyclopropylthiazol-2-yl)-4-(4,6-dimethoxypyrimidin-5-yl)-4H-1,2,4-triazol-3-yl)-1-methoxy-1-(5-methylpyrimidin-2-yl)propane-2-sulfonamide]
EC50: 0.00092 µM

COCC1(n2c(NS(=O)(=O)[C@@H](C)[C@H](OC)c3ncc(Cl)cn3)nnc2-c2nn(C)c3c2CCCC3)CC1 [Example 513.0, (1R,2S)-1-(5-chloropyrimidin-2-yl)-1-methoxy-N-(4-(1-(methoxymethyl)cyclopropyl)-5-(1-methyl-4,5,6,7-tetrahydro-1H-indazol-3-yl)-4H-1,2,4-triazol-3-yl)propane-2-sulfonamide]
EC50: 0.0031 µM

COc1cccc(OC)c1-n1c(NS(=O)(=O)[C@@H](C)[C@H](OC)c2ncc(C)cn2)nnc1-c1cnc2[nH]ccc2n1 [Example 206.0]
EC50: 0.096 µM

COc1ccccc1-n1c(NS(=O)(=O)Cc2ccc(Cl)cc2)nnc1-c1ccc(F)s1 [Example 235.0, 1-(4-chlorophenyl)-N-(5-(5-fluoro-2-thiophenyl)-4-(2-methoxyphenyl)-4H-1,2,4-triazol-3-yl)methanesulfonamide]
EC50: > 12.5 µM

COc1ccc(N2CCCC2=O)cc1-n1c(NS(=O)(=O)CCc2ccc(Cl)cc2)nnc1-c1cccs1 [Example 125.0, 2-(4-Chlorophenyl)-N-(4-(2-methoxy-5-(2-oxo-1-pyrrolidinyl)phenyl)-5-(2-thiophenyl)-4H-1,2,4-triazol-3-yl)ethanesulfonamide]
EC50: 0.024 µM

COc1ncnc(OC)c1-n1c(NS(=O)(=O)[C@@H](C)[C@H](C)c2ncc(F)cn2)nnc1-c1cnn2c1CCC2 [Example 480.0, (2S,3R)-N-(5-(5,6-dihydro-4H-pyrrolo[1,2-b]pyrazol-3-yl)-4-(4,6-dimethoxypyrimidin-5-yl)-4H-1,2,4-triazol-3-yl)-3-(5-fluoropyrimidin-2-yl)butane-2-sulfonamide]
EC50: 0.0044 µM

COc1cccc(OC)c1-n1c(NS(=O)(=O)[C@@H](C)Cc2ncc(C)cn2)nnc1-c1nc(C)cs1 (single isomer, unassigned) [Example 9.0, (2S)-N-(4-(2,6-dimethoxyphenyl)-5-(4-methyl-1,3-thiazol-2-yl)-4H-1,2,4-triazol-3-yl)-1-(5-methyl-2-pyrimidinyl)-2-propanesulfonamide or (2R)-N-(4-(2,6-dimethoxyphenyl)-5-(4-methyl-1,3-thiazol-2-yl)-4H-1,2,4-triazol-3-yl)-1-(5-methyl-2-pyrimidinyl)-2-propanesulfonamide]
EC50: 0.011 µM

CCO[C@H](c1ncc(C)cn1)[C@H](C)S(=O)(=O)Nc1nnc(-c2cc3n(n2)CCC3)n1-c1c(OC)cccc1OC [Example 217.0, (1R,2S)-N-(5-(5,6-dihydro-4H-pyrrolo[1,2-b]pyrazol-2-yl)-4-(2,6-dimethoxyphenyl)-4H-1,2,4-triazol-3-yl)-1-ethoxy-1-(5-methyl-2-pyrimidinyl)-2-propanesulfonamide]
EC50: 0.0028 µM

COc1ccc(C(=O)O)cc1-n1c(NS(=O)(=O)CCc2ccc(Cl)cc2)nnc1-c1cccs1 [Example 245.0, 3-(3-(2-(4-chlorophenyl)ethylsulfonamido)-5-(thiophen-2-yl)-4H-1,2,4-triazol-4-yl)-4-methoxybenzoic acid]
EC50: 0.21 µM

COc1cccc(OC)c1-n1c(NS(=O)(=O)[C@H](C)Cc2ncc(F)cn2)nnc1-c1ncccn1 (single isomer, unassigned) [Example 59.0, (R)-N-(4-(2,6-dimethoxyphenyl)-5-(pyrimidin-2-yl)-4H-1,2,4-triazol-3-yl)-1-(5-fluoropyrimidin-2-yl)propane-2-sulfonamide or (S)-N-(4-(2,6-dimethoxyphenyl)-5-(pyrimidin-2-yl)-4H-1,2,4-triazol-3-yl)-1-(5-fluoropyrimidin-2-yl)propane-2-sulfonamide]
EC50: 0.11 µM

COCC1(n2c(NS(=O)(=O)[C@@H](C)[C@H](OC)c3ncc(Cl)cn3)nnc2-c2n[nH]c3ccc(C)cc23)CC1 [Example 493.0, (1R,2S)-1-(5-chloropyrimidin-2-yl)-1-methoxy-N-(4-(1-(methoxymethyl)cyclopropyl)-5-(5-methyl-1H-indazol-3-yl)-4H-1,2,4-triazol-3-yl)propane-2-sulfonamide]
EC50: 0.043 µM

(R)-N-(4-(2,6-dimethoxyphenyl)-5-(pyrimidin-2-yl)-4H-1,2,4-triazol-3-yl)-1-(5-fluoropyrimidin-2-yl)propane-2-sulfonamide and (S)-N-(4-(2,6-dimethoxyphenyl)-5-(pyrimidin-2-yl)-4H-1,2,4-triazol-3-yl)-1-(5-fluoropyrimidin-2-yl)propane-2-sulfonamide [Example 56.0]
EC50: 0.074 µM

COc1cccc(OC)c1-n1c(NS(=O)(=O)CC[C@@H](O)C2CCCC2)nnc1-c1cccs1 (mixture of isomers) [Example 362.0, (R)-3-Cyclopentyl-N-(4-(2,6-dimethoxyphenyl)-5-(thiophen-2-yl)-4H-1,2,4-triazol-3-yl)-3-hydroxypropane-1-sulfonamide and (S)-3-cyclopentyl-N-(4-(2,6-dimethoxyphenyl)-5-(thiophen-2-yl)-4H-1,2,4-triazol-3-yl)-3-hydroxypropane-1-sulfonamide]
EC50: 0.003 µM

COc1cccc(OC)c1-n1c(NS(=O)(=O)[C@@H](C)[C@H](OC)c2ncc(C)cn2)nnc1-c1ccc(Cl)s1 [Example 334.0, (1R,2S)-N-(5-(5-chloro-2-thiophenyl)-4-(2,6-dimethoxyphenyl)-4H-1,2,4-triazol-3-yl)-1-methoxy-1-(5-methyl-2-pyrimidinyl)-2-propanesulfonamide]
EC50: 0.00052 µM

COc1cccc(OC)c1-n1c(NS(=O)(=O)[C@H](C)[C@@H](C)c2ncc(Cl)cn2)nnc1-c1n[nH]c2ccccc12 [Example 430.0]
EC50: 0.0028 µM

COc1cccc(OC)c1-n1c(NS(=O)(=O)[C@H](C)Cc2ncc(F)cn2)nnc1-c1nc(C2CC2)cs1 [Example 161.0]
EC50: 0.0038 µM

CCO[C@@H](c1ncc(Cl)cn1)[C@H](C)S(=O)(=O)Nc1nnc(-c2ccn(C)n2)n1-c1c(OC)cccc1OC (single isomer, unassigned) [Example 352.0, (1S,2S)-1-(5-chloropyrimidin-2-yl)-N-(4-(2,6-dimethoxyphenyl)-5-(1-methyl-1H-pyrazol-3-yl)-4H-1,2,4-triazol-3-yl)-1-ethoxypropane-2-sulfonamide or (1R,2R)-1-(5-chloropyrimidin-2-yl)-N-(4-(2,6-dimethoxyphenyl)-5-(1-methyl-1H-pyrazol-3-yl)-4H-1,2,4-triazol-3-yl)-1-ethoxypropane-2-sulfonamide]
EC50: 0.035 µM

COc1cccc(OC)c1-n1c(NS(=O)(=O)C[C@H](O)c2ccc(Cl)cn2)nnc1-c1ccn(C)n1 (mixture of isomers) [Example 363.0, (R)-2-(5-Chloropyridin-2-yl)-N-(4-(2,6-dimethoxyphenyl)-5-(1-methyl-1H-pyrazol-3-yl)-4H-1,2,4-triazol-3-yl)-2-hydroxyethanesulfonamide and (S)-2-(5-chloropyridin-2-yl)-N-(4-(2,6-dimethoxyphenyl)-5-(1-methyl-1H-pyrazol-3-yl)-4H-1,2,4-triazol-3-yl)-2-hydroxyethanesulfonamide]
EC50: 0.0015 µM

COc1cccc(OC)c1-n1c(NS(=O)(=O)CCc2ccc(Cl)cc2)nnc1-c1cncn1C [Example 93.0, 2-(4-chlorophenyl)-N-(4-(2,6-dimethoxyphenyl)-5-(1-methyl-1H-imidazol-5-yl)-4H-1,2,4-triazol-3-yl)ethanesulfonamide]
EC50: 0.02 µM

COc1cccc(OC)c1-n1c(NS(=O)(=O)[C@@H](C)[C@H](C)c2ncc(C)cn2)nnc1-c1cnn2c1CCC2 [Example 487.0, (2S,3R)-N-(5-(5,6-dihydro-4H-pyrrolo[1,2-b]pyrazol-3-yl)-4-(2,6-dimethoxyphenyl)-4H-1,2,4-triazol-3-yl)-3-(5-methylpyrimidin-2-yl)butane-2-sulfonamide]
EC50: 0.00062 µM

CC(C)O[C@@H](c1ncc(Cl)cn1)[C@H](C)S(=O)(=O)Nc1nnc(-c2ccn(C)n2)n1C(C)C [Example 537.0, (1S,2S)-1-(5-chloro-2-pyrimidinyl)-N-(5-(1-methyl-1H-pyrazol-3-yl)-4-(2-propanyl)-4H-1,2,4-triazol-3-yl)-1-(2-propanyloxy)-2-propanesulfonamide]
EC50: 0.027 µM

COc1cccc(OC)c1-n1c(NS(=O)(=O)[C@@H](C)[C@H](OC)c2ncc(C)cn2)nnc1-c1noc(C)c1C [Example 516.0]
EC50: 0.018 µM

COc1ccc(Cl)cc1-n1c(NS(=O)(=O)CCc2ccc(F)cc2)nnc1-c1cccs1 [Example 360.0, N-(4-(5-Chloro-2-methoxyphenyl)-5-(thiophen-2-yl)-4H-1,2,4-triazol-3-yl)-2-(4-fluorophenyl)ethanesulfonamide]
EC50: 0.194 µM
